Source: US20060148754A1, “Composition for treating and/or preventing dysfunctions associated with type 2 diabetes mellitus and insulin resistance” (priority 2003, published 2006)

Assay: Acetate and glycerol tracer infusion study with ingestion of lactulose or saline in obese, insulin resistant subjects
Type: in vivo, human
Procedure: Eight obese and insulin resistant subjects received a primed constant intravenous infusion of [1-^13C]acetate at the rate of 0.50 μmol·kg^−1·min^−1 and of [1,1,2,3,3-^2H5]glycerol at the rate of 0.11 μmol·kg^−1·min^−1 for 9 hours. After 3 hours of tracer infusion, patients ingested 30 g of pure lactulose, or saline solution. Arterialized blood samples were collected regularly.

Compound: OC[C@H]1O[C@@H](O[C@@H]2[C@@H](CO)OC(O)(CO)[C@H]2O)[C@H](O)[C@@H](O)[C@H]1O (mixture of isomers) [lactulose]
- plasma acetate concentration, maximum (after ingestion of 30 g lactulose, then decreased to baseline): ≈ 400 μmol/L
- FFA concentrations (after ingestion of 30 g lactulose, to 120 min, thereafter increased slowly): decreased significantly
- acetate turnover rate (after ingestion of 30 g pure lactulose, eight obese insulin resistant subjects, saline 10.3±2.2, P<0.0001): 15.5 ± 2.2 µmol/kg/min
- glycerol turnover (after ingestion of 30 g pure lactulose, saline 3.5±0.3, P≦0.05): 2.8 ± 0.4 µmol/kg/min
